From US7829568B2, “Substituted 5,6,7,8-tetrahydroimidazo[1,2-a]pyridin-2-ylamine compounds and their use for producing drugs” (Gruenenthal GmbH, priority 2005, dated 2010)

Test system: batrachotoxin (BTX) binding site of the sodium channel
Test: Affinity to the batrachotoxin (BTX) binding site of the sodium channel
Set-up: species or system rat
Settings: [3H]-batrachotoxinin A20 α-benzoate 10 nM; synaptosomes from rat cerebral cortex; test concentration not given

Row | Structure (SMILES) | BTX inhibition (rat) (% inhibition) [%]
1 | CCCCN(C(=O)c1cccc(Cl)c1)c1nc2n(c1C(=O)NCCc1cc(OC)ccc1OC)CCCC2 [Example 2, 2-[butyl-(3-chloro-benzoyl)-amino]-5,6,7,8-tetrahydro-imidazo[1,2-a]pyridine-3-carboxylic acid [2-(2,5-dimethoxy-phenyl)-ethyl]-amide] | 59
2 | CCc1ccccc1N1CCN(C(=O)c2c(N(C)C(=O)c3ccccc3)nc3n2CCCC3)CC1 [Example 3, N-{3-[4-(2-ethyl-phenyl)-piperazine-1-carbonyl]-5,6,7,8-tetrahydro-imidazo[1,2-a]pyridin-2-yl}-N-methyl-benzamide] | 34
3 | CCCCN(C(=O)c1cccc(Cl)c1)c1nc2n(c1C(=O)NCCCn1ccnc1)CCCC2 [Example 9, 2-[butyl-(3-chloro-benzoyl)-amino]-5,6,7,8-tetrahydro-imidazo[1,2-a]pyridine-3-carboxylic acid (3-imidazol-1-yl-propyl)-amide] | 36
4 | CN(C(=O)c1cccc(Cl)c1)c1nc2n(c1C(=O)N1CCN(c3cccc(C(F)(F)F)c3)CC1)CCCC2 [Example 14, 3-chloro-N-methyl-N-{3-[4-(3-trifluoromethyl-phenyl)-piperazine-1-carbonyl]-5,6,7,8-tetrahydro-imidazo[1,2-a]pyridin-2-yl}-benzamide] | 41
5 | CN(C(=O)c1cccc2ccccc12)c1nc2n(c1C(=O)NCc1cc(C(F)(F)F)cc(C(F)(F)F)c1)CCCC2 [Example 15, 2-[Methyl-(naphthalene-1-carbonyl)-amino]-5,6,7,8-tetrahydro-imidazo[1,2-a]pyridine-3-carboxylic acid 3,5-bis-trifluoromethyl-benzylamide] | 68
6 | CCCCN(C(=O)c1ccc(F)c(F)c1)c1nc2n(c1C(=O)NC1CCC(C)CC1)CCCC2 (centres unmarked) [Example 16, 2-[butyl-(3,4-difluoro-benzoyl)-amino]-5,6,7,8-tetrahydro-imidazo[1,2-a]pyridine-3-carboxylic acid (4-methyl-cyclohexyl)-amide] | 47
7 | CCCCN(C(=O)c1cccc(Cl)c1)c1nc2n(c1C(=O)N1CCN(CCCc3ccccc3)CC1)CCCC2 [Example 26, N-butyl-3-chloro-N-{3-[4-(3-phenyl-propyl)-piperazine-1-carbonyl]-5,6,7,8-tetrahydro-imidazo[1,2-a]pyridin-2-yl}-benzamide] | 93
8 | CC1C(NC(=O)c2c(N(C)C(=O)c3cccc(Cl)c3)nc3n2CCCC3)CC2CC1C2(C)C (centres unmarked) [Example 27, 2-[(3-chloro-benzoyl)-methyl-amino]-5,6,7,8-tetrahydro-imidazo[1,2-a]pyridine-3-carboxylic acid (2,6,6-trimethyl-bicyclo[3.1.1]hept-3-yl)-amide] | 35
9 | CCCCN(C(=O)c1ccc(F)c(F)c1)c1nc2n(c1C(=O)NCCCc1ccccc1)CCCC2 [Example 28, 2-[butyl-(3,4-difluoro-benzoyl)-amino]-5,6,7,8-tetrahydro-imidazo[1,2-a]pyridine-3-carboxylic acid (3-phenyl-propyl)-amide] | 42
10 | CN(C(=O)c1cccc2ccccc12)c1nc2n(c1C(=O)NC1CCN(Cc3ccc(C(F)(F)F)cc3)C1)CCCC2 (centres unmarked) [Example 30, 2-[methyl-(naphthalene-1-carbonyl)-amino]-5,6,7,8-tetrahydro-imidazo[1,2-a]pyridine-3-carboxylic acid [1-(4-trifluoromethyl-benzyl)-pyrrolidin-3-yl]-amide] | 85
11 | CCc1ccc(NC(=O)c2c(N(C)C(=O)c3cccc(Cl)c3)nc3n2CCCC3)cc1 [Example 31, 2-[(3-chloro-benzoyl)-methyl-amino]-5,6,7,8-tetrahydro-imidazo[1,2-a]pyridine-3-carboxylic acid (4-ethyl-phenyl)-amide] | 70
12 | CN(C(=O)c1cccc2ccccc12)c1nc2n(c1C(=O)NCc1cccc(Cl)c1Cl)CCCC2 [Example 33, 2-[methyl-(naphthalene-1-carbonyl)-amino]-5,6,7,8-tetrahydro-imidazo[1,2-a]pyridine-3-carboxylic acid 2,3-dichlor-benzylamide] | 49
13 | CCCCN(C(=O)c1ccc(F)c(F)c1)c1nc2n(c1C(=O)N(C)C1CCN(Cc3cc4ccccc4o3)C1)CCCC2 (centres unmarked) [Example 34, 2-[butyl-(3,4-difluoro-benzoyl)-amino]-5,6,7,8-tetrahydro-imidazo[1,2-a]pyridine-3-carboxylic acid (1-benzofuran-2-ylmethyl-pyrrolidin-3-yl)-methyl-amide] | 83
14 | CCCCN(C(=O)c1cccc(Cl)c1)c1nc2n(c1C(=O)NC(C)c1cccc3ccccc13)CCCC2 (centres unmarked) [Example 39, 2-[butyl-(3-chloro-benzoyl)-amino]-5,6,7,8-tetrahydro-imidazo[1,2-a]pyridine-3-carboxylic acid (1-naphthalen-1-yl-ethyl)-amide] | 47
15 | CCCCN(C(=O)c1cccc(Cl)c1)c1nc2n(c1C(=O)NCc1ccccc1OCC)CCCC2 [Example 43, 2-[butyl-(3-chloro-benzoyl)-amino]-5,6,7,8-tetrahydro-imidazo[1,2-a]pyridine-3-carboxylic acid 2-ethoxy-benzylamide] | 40
16 | CN(C(=O)c1cccc(Cl)c1)c1nc2n(c1C(=O)N1CCN(Cc3ccc4c(c3)OCO4)CC1)CCCC2 [Example 45, N-[3-(4-benzo[1,3]dioxol-5-ylmethyl-piperazine-1-carbonyl)-5,6,7,8-tetrahydro-imidazo[1,2-a]pyridin-2-yl]-3-chloro-N-methyl-benzamide] | 41
17 | CN(C(=O)c1cccc2ccccc12)c1nc2n(c1C(=O)NCC(c1ccccc1)c1ccccc1)CCCC2 [Example 46, 2-[methyl-(naphthalene-1-carbonyl)-amino]-5,6,7,8-tetrahydro-imidazo[1,2-a]pyridine-3-carboxylic acid (2,2-diphenyl-ethyl)-amide] | 67
18 | CCCCN(C(=O)c1cccc(Cl)c1)c1nc2n(c1C(=O)NCc1ccc(F)cc1F)CCCC2 [Example 47, 2-[butyl-(3-chloro-benzoyl)-amino]-5,6,7,8-tetrahydro-imidazo[1,2-a]pyridine-3-carboxylic acid 2,4-difluoro-benzylamide] | 44
19 | CCCCN(C(=O)c1cccc(Cl)c1)c1nc2n(c1C(=O)N1CCN(c3ccccc3F)CC1)CCCC2 [Example 48, N-butyl-3-chloro-N-{3-[4-(2-fluoro-phenyl)-piperazine-1-carbonyl]-5,6,7,8-tetrahydro-imidazo[1,2-a]pyridin-2-yl}-benzamide] | 89
20 | Cc1ccc(CCNC(=O)c2c(N(C)C(=O)c3cccc4ccccc34)nc3n2CCCC3)cc1 [Example 49, 2-[methyl-(naphthalene-1-carbonyl)-amino]-5,6,7,8-tetrahydro-imidazo[1,2-a]pyridine-3-carboxylic acid (2-p-tolyl-ethyl)-amide] | 37
21 | CCCCN(C(=O)c1cccc(Cl)c1)c1nc2n(c1C(=O)NCc1ccccc1C(F)(F)F)CCCC2 [Example 51, 2-[butyl-(3-chloro-benzoyl)-amino]-5,6,7,8-tetrahydro-imidazo[1,2-a]pyridine-3-carboxylic acid 2-trifluoromethyl-benzylamide] | 35
22 | CCCCN(C(=O)c1cccc(Cl)c1)c1nc2n(c1C(=O)NC1CCc3ccccc31)CCCC2 (centres unmarked) [Example 52, 2-[butyl-(3-chloro-benzoyl)-amino]-5,6,7,8-tetrahydro-imidazo[1,2-a]pyridine-3-carboxylic acid indan-1-ylamide] | 45
23 | CN(C(=O)c1cccc(Cl)c1)c1nc2n(c1C(=O)N1CCN(Cc3ccc4ccccc4n3)CC1)CCCC2 [Example 53, 3-chloro-N-methyl-N-[3-(4-quinolin-2-ylmethyl-piperazine-1-carbonyl)-5,6,7,8-tetrahydro-imidazo[1,2-a]pyridin-2-yl]-benzamide] | 64
24 | CCCCN(C(=O)c1ccc(F)c(F)c1)c1nc2n(c1C(=O)N1CCN(C(c3ccccc3)c3ccccc3)CC1)CCCC2 [Example 56, N-[3-(4-benzhydryl-piperazine-1-carbonyl)-5,6,7,8-tetrahydro-imidazo[1,2-a]pyridin-2-yl]-N-butyl-3,4-difluoro-benzamide] | 65
25 | CC(C)CC(NC(=O)c1c(N(C)C(=O)c2cccc3ccccc23)nc2n1CCCC2)C(=O)OCc1ccccc1 (centres unmarked) [Example 57, 4-methyl-2-({2-[methyl-(naphthalene-1-carbonyl)-amino]-5,6,7,8-tetrahydro-imidazo[1,2-a]pyridine-3-carbonyl}-amino)-pentanoic acid benzyl ester] | 31
26 | CCCCN(C(=O)c1cccc(Cl)c1)c1nc2n(c1C(=O)NCCN1CCCC1)CCCC2 [Example 58, 2-[butyl-(3-chloro-benzoyl)-amino]-5,6,7,8-tetrahydro-imidazo[1,2-a]pyridine-3-carboxylic acid (2-pyrrolidin-1-yl-ethyl)-amide] | 50
27 | CN(C(=O)c1cccc(Cl)c1)c1nc2n(c1C(=O)NC1CCN(Cc3ccccc3OCc3ccccc3)C1)CCCC2 (centres unmarked) [Example 59, 2-[(3-chloro-benzoyl)-methyl-amino]-5,6,7,8-tetrahydro-imidazo[1,2-a]pyridine-3-carboxylic acid [1-(2-benzyloxy-benzyl)-pyrrolidin-3-yl]-amide] | 95
28 | CN(C(=O)c1cccc(Cl)c1)c1nc2n(c1C(=O)N1CC=C(c3ccc(F)cc3)CC1)CCCC2 [Example 61, 3-chloro-N-{3-[4-(4-fluorophenyl)-3,6-dihydro-2H-pyridine-1-carbonyl]-5,6,7,8-tetrahydro-imidazo[1,2-a]pyridin-2-yl}-N-methyl-benzamide] | 38
29 | CN(C(=O)c1cccc(Cl)c1)c1nc2n(c1C(=O)NC1CCCCC1OCc1ccccc1)CCCC2 (centres unmarked) [Example 67, 2-[(3-chloro-benzoyl)-methyl-amino]-5,6,7,8-tetrahydro-imidazo[1,2-a]pyridine-3-carboxylic acid (2-benzyloxy-cyclohexyl)-amide] | 51
